# Assay results: patent US20090018134A1, “Compounds - 945” (AstraZeneca AB, priority 2007, published 2009)
# Target: T1, mTOR (Homo sapiens, UniProt P42345)
# T1 construct: FLAG; made in house
# Assay: In Vitro mTOR Kinase Assay (Echo), Test (a)(ii)
# Format: biochemical
# Settings: table of enzyme assay Test (a)(ii); read-out: Test (a)(ii) IC50
# In short: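 FLAG-tagged truncated mTOR (residues 1362-2549), expressed in HEK293 and purified via the FLAG tag, phosphorylated a biotinylated peptide over 2 hours at room temperature. EDTA stopped the reaction. Phospho-T389 was detected overnight by AlphaScreen using the p70 S6K T389 antibody with Protein A/streptavidin beads; IC50 reported.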
# T1 sequence (P42345 1362-2549): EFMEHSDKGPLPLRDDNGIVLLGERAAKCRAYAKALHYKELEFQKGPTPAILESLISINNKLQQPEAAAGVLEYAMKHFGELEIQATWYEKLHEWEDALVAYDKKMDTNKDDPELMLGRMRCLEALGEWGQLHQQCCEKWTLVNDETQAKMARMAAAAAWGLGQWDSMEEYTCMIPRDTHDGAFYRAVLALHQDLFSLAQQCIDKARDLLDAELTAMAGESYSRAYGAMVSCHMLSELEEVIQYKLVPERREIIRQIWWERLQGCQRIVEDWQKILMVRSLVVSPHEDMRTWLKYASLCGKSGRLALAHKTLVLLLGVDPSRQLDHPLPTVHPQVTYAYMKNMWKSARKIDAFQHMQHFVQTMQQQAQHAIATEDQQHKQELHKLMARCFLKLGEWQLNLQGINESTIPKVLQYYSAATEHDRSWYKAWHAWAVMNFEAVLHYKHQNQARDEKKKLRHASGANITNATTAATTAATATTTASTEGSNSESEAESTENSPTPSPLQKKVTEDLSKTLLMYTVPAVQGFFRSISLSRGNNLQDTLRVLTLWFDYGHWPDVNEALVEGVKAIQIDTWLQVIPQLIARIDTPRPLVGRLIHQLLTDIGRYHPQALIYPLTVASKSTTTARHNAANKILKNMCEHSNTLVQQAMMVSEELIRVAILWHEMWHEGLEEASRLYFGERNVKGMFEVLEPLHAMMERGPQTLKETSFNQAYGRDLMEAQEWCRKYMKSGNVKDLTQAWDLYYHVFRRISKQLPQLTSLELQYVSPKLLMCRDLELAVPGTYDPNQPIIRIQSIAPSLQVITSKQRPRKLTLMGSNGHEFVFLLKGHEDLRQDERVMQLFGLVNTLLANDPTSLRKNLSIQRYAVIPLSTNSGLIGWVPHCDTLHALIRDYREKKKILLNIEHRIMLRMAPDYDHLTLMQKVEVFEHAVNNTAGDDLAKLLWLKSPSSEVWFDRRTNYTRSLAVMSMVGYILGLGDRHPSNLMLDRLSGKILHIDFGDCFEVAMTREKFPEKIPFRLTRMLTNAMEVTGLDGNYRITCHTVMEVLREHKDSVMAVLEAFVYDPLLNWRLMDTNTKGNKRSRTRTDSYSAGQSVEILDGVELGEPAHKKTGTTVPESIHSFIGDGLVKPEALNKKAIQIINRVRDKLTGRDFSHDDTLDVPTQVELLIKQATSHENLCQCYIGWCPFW
row,SMILES,IC50
1,"O=C(Nc1ccc(-c2nc(N3CCOCC3)cc(C3(S(=O)(=O)C4CC4)CC3)n2)cc1)NC1CCC1 [Example 13c, 3-cyclobutyl-1-[4-[4-(1-cyclopropylsulfonylcyclopropyl)-6-morpholin-4-ylpyrimidin-2-yl]phenyl]urea]",1.73 nM
2,"C[C@H]1COCCN1c1cc(C2(S(=O)(=O)C(C)(C)C)CC2)nc(-c2ccc(NC(=O)NC3CCC3)cc2)n1 [Example 18a, 1-[4-[4-(1-tert-butylsulfonylcyclopropyl)-6-[(3S)-3-methylmorpholin-4-yl]pyrimidin-2-yl]phenyl]-3-cyclobutylurea]",7.14 nM
3,"C[C@H]1COCCN1c1cc(C2(S(=O)(=O)CCCOC(F)F)CC2)nc(-c2ccc(NC(=O)NC3CC3)cc2)n1 [Example 96e, 3-cyclopropyl-1-[4-[4-[1-[3-(difluoromethoxy)propylsulfonyl]cyclopropyl]-6-[(3S)-3-methylmorpholin-4-yl]pyrimidin-2-yl]phenyl]urea]",8.62 nM
4,"CNCCS(=O)(=O)C1(c2cc(N3CCOCC3)nc(-c3ccc(NC(=O)NC)cc3)n2)CC1 [Example 97, 3-Methyl-1-[4-[4-[1-(2-methylaminoethylsulfonyl)cyclopropyl]-6-morpholin-4-ylpyrimidin-2-yl]phenyl]urea]",88.2 nM
5,"Cc1csc(S(=O)(=O)C2(c3cc(N4CCOC[C@@H]4C)nc(-c4ccc(NC(=O)NC(C)(C)CO)cc4)n3)CCC2)n1 [Example 98a, 3-(1-hydroxy-2-methylpropan-2-yl)-1-[4-[4-[(3S)-3-methylmorpholin-4-yl]-6-[1-[(4-methyl-1,3-thiazol-2-yl)sulfonyl]cyclobutyl]pyrimidin-2-yl]phenyl]urea]",11 nM
6,"Cc1csc(S(=O)(=O)C2(c3cc(N4CCOC[C@@H]4C)nc(-c4ccc(NC(=O)N[C@@H](C)CO)cc4)n3)CCC2)n1 [Example 98b, 3-[(2S)-1-hydroxypropan-2-yl]-1-[4-[4-[(3S)-3-methylmorpholin-4-yl]-6-[1-[(4-methyl-1,3-thiazol-2-yl)sulfonyl]cyclobutyl]pyrimidin-2-yl]phenyl]urea]",4.13 nM
7,"Cc1csc(S(=O)(=O)C2(c3cc(N4CCOC[C@@H]4C)nc(-c4ccc(NC(=O)NCc5ncc[nH]5)cc4)n3)CCC2)n1 [Example 98c, 3-(1H-imidazol-2-ylmethyl)-1-[4-[4-[(3S)-3-methylmorpholin-4-yl]-6-[1-[(4-methyl-1,3-thiazol-2-yl)sulfonyl]cyclobutyl]pyrimidin-2-yl]phenyl]urea]",26.7 nM
8,"Cc1csc(S(=O)(=O)C2(c3cc(N4CCOC[C@@H]4C)nc(-c4ccc(NC(=O)NCCCO)cc4)n3)CCC2)n1 [Example 98d, 3-(3-hydroxypropyl)-1-[4-[4-[(3S)-3-methylmorpholin-4-yl]-6-[1-[(4-methyl-1,3-thiazol-2-yl)sulfonyl]cyclobutyl]pyrimidin-2-yl]phenyl]urea]",4.41 nM
9,"Cc1csc(S(=O)(=O)C2(c3cc(N4CCOC[C@@H]4C)nc(-c4ccc(NC(=O)NCCO)cc4)n3)CCC2)n1 [Example 98e, 3-(2-hydroxyethyl)-1-[4-[4-[(3S)-3-methylmorpholin-4-yl]-6-[1-[(4-methyl-1,3-thiazol-2-yl)sulfonyl]cyclobutyl]pyrimidin-2-yl]phenyl]urea]",3.35 nM
10,"Cc1csc(S(=O)(=O)C2(c3cc(N4CCOC[C@@H]4C)nc(-c4ccc(NC(=O)N[C@H](C)CO)cc4)n3)CCC2)n1 [Example 98f, 3-[(2R)-1-hydroxypropan-2-yl]-1-[4-[4-[(3S)-3-methylmorpholin-4-yl]-6-[1-[(4-methyl-1,3-thiazol-2-yl)sulfonyl]cyclobutyl]pyrimidin-2-yl]phenyl]urea]",2.29 nM
11,"C[C@H]1COCCN1c1cc(C2(S(=O)(=O)c3nccs3)CCC2)nc(-c2ccc(NC(=O)NC(C)(C)CO)cc2)n1 [Example 98g, 3-(1-hydroxy-2-methylpropan-2-yl)-1-[4-[4-[(3S)-3-methylmorpholin-4-yl]-6-[1-(1,3-thiazol-2-ylsulfonyl)cyclobutyl]pyrimidin-2-yl]phenyl]urea]",12.7 nM
12,"C[C@@H](CO)NC(=O)Nc1ccc(-c2nc(N3CCOC[C@@H]3C)cc(C3(S(=O)(=O)c4nccs4)CCC3)n2)cc1 [Example 98h, 3-[(2S)-1-hydroxypropan-2-yl]-1-[4-[4-[(3S)-3-methylmorpholin-4-yl]-6-[1-(1,3-thiazol-2-ylsulfonyl)cyclobutyl]pyrimidin-2-yl]phenyl]urea]",3.62 nM

# Continued, values first:
row,IC50,SMILES
1,28.5 nM,"C[C@H]1COCCN1c1cc(C2(S(=O)(=O)c3nccs3)CCC2)nc(-c2ccc(NC(=O)NCc3ncc[nH]3)cc2)n1 [Example 98i, 3-(1H-imidazol-2-ylmethyl)-1-[4-[4-[(3S)-3-methylmorpholin-4-yl]-6-[1-(1,3-thiazol-2-ylsulfonyl)cyclobutyl]pyrimidin-2-yl]phenyl]urea]"
2,3.74 nM,"C[C@H]1COCCN1c1cc(C2(S(=O)(=O)c3nccs3)CCC2)nc(-c2ccc(NC(=O)NCCCO)cc2)n1 [Example 98j, 3-(3-hydroxypropyl)-1-[4-[4-[(3S)-3-methylmorpholin-4-yl]-6-[1-(1,3-thiazol-2-ylsulfonyl)cyclobutyl]pyrimidin-2-yl]phenyl]urea]"
3,2.46 nM,"C[C@H]1COCCN1c1cc(C2(S(=O)(=O)c3nccs3)CCC2)nc(-c2ccc(NC(=O)NCCO)cc2)n1 [Example 98k, 3-(2-hydroxyethyl)-1-[4-[4-[(3S)-3-methylmorpholin-4-yl]-6-[1-(1,3-thiazol-2-ylsulfonyl)cyclobutyl]pyrimidin-2-yl]phenyl]urea]"
4,7.89 nM,"C[C@H](CO)NC(=O)Nc1ccc(-c2nc(N3CCOC[C@@H]3C)cc(C3(S(=O)(=O)c4nccs4)CCC3)n2)cc1 [Example 98l, 3-[(2R)-1-hydroxypropan-2-yl]-1-[4-[4-[(3S)-3-methylmorpholin-4-yl]-6-[1-(1,3-thiazol-2-ylsulfonyl)cyclobutyl]pyrimidin-2-yl]phenyl]urea]"
5,43.8 nM,"CNC(=S)Nc1ccc(-c2nc(N3CCOC[C@@H]3C)cc(C3(S(=O)(=O)CCCO)CCC3)n2)cc1 [Example 99a, 1-[4-[4-[1-(3-hydroxypropylsulfonyl)cyclobutyl]-6-[(3S)-3-methylmorpholin-4-yl]pyrimidin-2-yl]phenyl]-3-methylthiourea]"
6,31.6 nM,"C[C@H]1COCCN1c1cc(C2(S(=O)(=O)CCCO)CCC2)nc(-c2ccc(NC(=S)NC3CC3)cc2)n1 [Example 99b, 3-cyclopropyl-1-[4-[4-[1-(3-hydroxypropylsulfonyl)cyclobutyl]-6-[(3S)-3-methylmorpholin-4-yl]pyrimidin-2-yl]phenyl]thiourea]"
7,239 nM,"C[C@H]1COCCN1c1cc(C2(S(=O)(=O)CCCO)CCC2)nc(-c2ccc(NC(=S)NCc3ncc[nH]3)cc2)n1 [Example 99c, 1-[4-[4-[1-(3-hydroxypropylsulfonyl)cyclobutyl]-6-[(3S)-3-methylmorpholin-4-yl]pyrimidin-2-yl]phenyl]-3-(1H-imidazol-2-ylmethyl)thiourea]"
8,219 nM,"C[C@H]1COCCN1c1cc(C2(S(=O)(=O)CCCO)CCC2)nc(-c2ccc(NC(=S)NC(C)(C)CO)cc2)n1 [Example 99d, 3-(1-hydroxy-2-methylpropan-2-yl)-1-[4-[4-[1-(3-hydroxypropylsulfonyl)cyclobutyl]-6-[(3S)-3-methylmorpholin-4-yl]pyrimidin-2-yl]phenyl]thiourea]"
9,31.7 nM,"CCNC(=S)Nc1ccc(-c2nc(N3CCOC[C@@H]3C)cc(C3(S(=O)(=O)CCCO)CCC3)n2)cc1 [Example 99e, 1-ethyl-3-[4-[4-[1-(3-hydroxypropylsulfonyl)cyclobutyl]-6-[(3S)-3-methylmorpholin-4-yl]pyrimidin-2-yl]phenyl]thiourea]"
10,5.89 nM,"C[C@H]1COCCN1c1cc(C2(S(=O)(=O)CCCO)CCC2)nc(-c2ccc(NC(=S)NCCO)cc2)n1 [Example 99f, 3-(2-hydroxyethyl)-1-[4-[4-[1-(3-hydroxypropylsulfonyl)cyclobutyl]-6-[(3S)-3-methylmorpholin-4-yl]pyrimidin-2-yl]phenyl]thiourea]"
11,15.2 nM,"C[C@H]1COCCN1c1cc(C2(S(=O)(=O)CCCO)CCC2)nc(-c2ccc(NC(=S)NCC(F)F)cc2)n1 [Example 99g, 3-(2,2-difluoroethyl)-1-[4-[4-[1-(3-hydroxypropylsulfonyl)cyclobutyl]-6-[(3S)-3-methylmorpholin-4-yl]pyrimidin-2-yl]phenyl]thiourea]"
12,78.2 nM,"CCCNC(=S)Nc1ccc(-c2nc(N3CCOC[C@@H]3C)cc(C3(S(=O)(=O)CCCO)CCC3)n2)cc1 [Example 99h, 3-[4-[4-[1-(3-hydroxypropylsulfonyl)cyclobutyl]-6-[(3S)-3-methylmorpholin-4-yl]pyrimidin-2-yl]phenyl]-1-propylthiourea]"
13,59.4 nM,"C[C@H]1COCCN1c1cc(C2(S(=O)(=O)CCCO)CCC2)nc(-c2ccc(NC(=S)NCCCO)cc2)n1 [Example 99i, 3-(3-hydroxypropyl)-1-[4-[4-[1-(3-hydroxypropylsulfonyl)cyclobutyl]-6-[(3S)-3-methylmorpholin-4-yl]pyrimidin-2-yl]phenyl]thiourea]"
14,12.4 nM,"C[C@H]1COCCN1c1cc(C2(S(=O)(=O)CCCO)CC2)nc(-c2ccc(NC(=S)NCC(F)F)cc2)n1 [Example 99j, 3-(2,2-difluoroethyl)-1-[4-[4-[1-(3-hydroxypropylsulfonyl)cyclopropyl]-6-[(3S)-3-methylmorpholin-4-yl]pyrimidin-2-yl]phenyl]thiourea]"

# Target: T1, mTOR
# Assay: mTOR Kinase Assay (Echo)
# Format: biochemical
# Settings: not given
row,IC50,SMILES
1,2.4 nM,"O=C(Nc1ccc(-c2nc(N3CCOCC3)cc(C3(S(=O)(=O)C4CC4)CC3)n2)cc1)NC1CCC1 [Example 13c, 3-cyclobutyl-1-[4-[4-(1-cyclopropylsulfonylcyclopropyl)-6-morpholin-4-ylpyrimidin-2-yl]phenyl]urea]"
2,9.67 nM,"C[C@H]1COCCN1c1cc(C2(S(=O)(=O)C(C)(C)C)CC2)nc(-c2ccc(NC(=O)NC3CCC3)cc2)n1 [Example 18a, 1-[4-[4-(1-tert-butylsulfonylcyclopropyl)-6-[(3S)-3-methylmorpholin-4-yl]pyrimidin-2-yl]phenyl]-3-cyclobutylurea]"
3,259 nM,"C[C@H]1COCCN1c1cc(C2(S(=O)(=O)c3ccccn3)CC2)nc(-c2ccc(NC(=O)NC3(CO)CC3)cc2)n1 [Example 36cv, 3-[1-(hydroxymethyl)cyclopropyl]-1-[4-[4-[(3S)-3-methylmorpholin-4-yl]-6-(1-pyridin-2-ylsulfonylcyclopropyl)pyrimidin-2-yl]phenyl]urea]"
